From ChEMBL document CHEMBL2346660, “Synthesis and biological evaluation of trans 6-methoxy-1,1-dimethyl-2-phenyl-3-aryl-2,3-dihydro-1H-inden-4-yloxyalkylamine derivatives against drug susceptible, non-replicating M. tuberculosis H37Rv and clinical multidrug resistant strains” (Bioorg Med Chem Lett, 2013)
Converted amounts (≈) assume the structure as drawn. The source made the active and inactive calls. No cut-off for these calls is given here.

Columns and labels:
[1] = system: Mycobacterium tuberculosis; experiment: Antimicrobial activity against Mycobacterium tuberculosis H37Rv by BACTEC radiometric method; type: functional
[2] = Cytotoxicity against african green monkey Vero cells after 72 hrs by resazurin assay; type: cell-based; conditions: chlorocebus sabaeus
[3] = Selectivity index, ratio of CC50 for african green monkey Vero cells tp MIC for Mycobacterium tuberculosis H37Rv; type: functional
[4] = Lipophilicity, log P of the compound; type: physicochemical; conditions: octanol/water
[5] = system: Mycobacterium tuberculosis; type: functional, organism-based; conditions: H37Rv, 6.25 ug/ml
[6] = system: Mycobacterium tuberculosis; experiment: Antimicrobial activity against compound-sensitive Mycobacterium tuberculosis 2280 by agar dilution method and BACTEC radiometric method; type: functional
[7] = system: Mycobacterium tuberculosis; experiment: Antimicrobial activity against Mycobacterium tuberculosis H37Rv infected in mouse J774A.1 cells assessed as growth inhibition at MIC; type: functional
[8] = system: Mycobacterium tuberculosis; experiment: Antimicrobial activity against Mycobacterium tuberculosis H37Rv infected in BALB/c mouse assessed as log10 reduction of bacterial growth in lungs at 100 mg/kg, po administered 6 days a week for 30 days starting from 2 days post infection relative to untreated control; type: functional
[9] = system: Mycobacterium tuberculosis; experiment: Antimicrobial activity against Mycobacterium tuberculosis H37Rv infected in BALB/c mouse assessed as log10 reduction of bacterial growth in lungs at 25 mg/kg, po administered 6 days a week for 30 days starting from 2 days post infection relative to untreated control; type: functional

Row | SMILES | MIC [1] | CC50 at 72 h [2] | Selectivity Index [3] | logP [4] | Activity [5] | MIC [6] | growth inhibition (GI) [7] | log10cfu [8] | log10cfu [9]
1 | COc1cc(OCCN2CCCCCC2)c2c(c1)C(C)(C)[C@H](c1ccccc1)[C@H]2c1ccccc1 (relative stereo) | 3.12 µg/mL (≈ 6.65 µM) | 8.11 µg/mL (≈ 17.3 µM) | 2.6 | 7.66 |  |  |  |  | 
2 | COc1cc(OCCCN(C)C)c2c(c1)C(C)(C)[C@H](c1ccccc1)[C@H]2c1ccccc1 (relative stereo) | 3.12 µg/mL (≈ 7.27 µM) | 4.59 µg/mL (≈ 10.7 µM) | 1.4 | 6.62 |  |  |  |  | 
3 | COc1cc(OCCN2CCOCC2)c2c(c1)C(C)(C)[C@H](c1ccccc1)[C@H]2c1ccccc1 (relative stereo) | 3.12 µg/mL (≈ 6.83 µM) | 17.5 µg/mL (≈ 38.2 µM) | 5.6 | 6.11 |  |  |  |  | 
4 | CCN(CC)CCOc1cc(OC)cc2c1[C@H](c1ccccc1)[C@@H](c1ccccc1)C2(C)C (relative stereo) | 3.12 µg/mL (≈ 7.04 µM) | 3.74 µg/mL (≈ 8.43 µM) | 1.19 | 7.19 |  |  |  |  | 
5 | COc1cc(OCCN(C)C)c2c(c1)C(C)(C)[C@H](c1ccccc1)[C@H]2c1ccccc1 (relative stereo) | 6.25 µg/mL (≈ 15 µM) | 2.96 µg/mL (≈ 7.12 µM) | 0.47 | 7.24 |  |  |  |  | 
6 | COc1cc(OCCN2CCCCC2)c2c(c1)C(C)(C)[C@H](c1ccccc1)[C@H]2c1ccccc1 (relative stereo) | 1.56 µg/mL (≈ 3.42 µM) | 2.41 µg/mL (≈ 5.29 µM) | 1.54 | 6.57 |  |  |  |  | 
7 | COc1cc(OCCN2CCCCC2)c2c(c1)C(C)(C)[C@H](c1ccccc1)[C@H]2c1c(OC)ccc2ccccc12 (relative stereo) | 1.56 µg/mL (≈ 2.91 µM) | 5.52 µg/mL (≈ 10.3 µM) | 3.53 | 8.11 |  |  |  |  | 
8 | COc1cc(OCCN2CCCC2)c2c(c1)C(C)(C)[C@H](c1ccccc1)[C@H]2c1ccccc1 (relative stereo) | 3.12 µg/mL (≈ 7.08 µM) | 7.49 µg/mL (≈ 17 µM) | 2.39 | 6.83 |  |  |  |  | 
9 | COc1cc(OCCN(C(C)C)C(C)C)c2c(c1)C(C)(C)[C@H](c1ccccc1)[C@H]2c1ccccc1 (relative stereo) | 3.12 µg/mL (≈ 6.63 µM) | 49.2 µg/mL (≈ 104 µM) | 15.73 | 7.82 | Active | 3.12 µg/mL (≈ 6.63 µM) | >90% | 1.35 | 
10 | COc1cc(OCCN2CCCCCC2)c2c(c1)C(C)(C)[C@H](c1ccccc1)[C@H]2c1c(OC)ccc2ccccc12 (relative stereo) | 1.56 µg/mL (≈ 2.84 µM) | 24 µg/mL (≈ 43.6 µM) | 15.37 | 8.53 |  | 1.56 µg/mL (≈ 2.84 µM) |  |  | 
11 | CC[C@@H](CO)NCCN[C@@H](CC)CO [ETHAMBUTOL] | 0.5 µg/mL (≈ 2.45 µM) | 38.5 µg/mL (≈ 188 µM) | 77.02 | 0.14 |  |  |  |  | 
12 | NNC(=O)c1ccncc1 [ISONIAZID] |  |  |  |  |  |  |  |  | 2.8
13 | CO[C@H]1/C=C/O[C@@]2(C)Oc3c(C)c(O)c4c(O)c(cc(O)c4c3C2=O)NC(=O)/C(C)=C\C=C\[C@H](C)[C@H](O)[C@@H](C)[C@@H](O)[C@@H](C)[C@H](OC(C)=O)[C@@H]1C [RIFAMYCIN] | 0.39 µg/mL (≈ 0.559 µM) | 62.5 µg/mL (≈ 89.5 µM) | 160.1 | 3.71 |  |  |  |  | 
